Data on 27 molecules can be found in patent US10647694B2, “Diphenylaminopyrimidine and triazine compound, and pharmaceutical composition and use thereof” (ARROMAX PHARMATECH CO., LTD., priority 2016, dated 2020).

Each structure is given as a SMILES string.

For the assay, the target named is ALK enzyme (Homo sapiens, UniProt Q9UM73). Briefly: In-vitro ALK kinase inhibitory activity (HTRF kinEASE TK kit). In kind it is biochemical. The note with it: inhibitory activity for ALK enzyme, read-out: IC50 range. Here is the method: Anaplastic Lymphoma Kinase (ALK) Inhibitory Activity The in-vitro kinase assay was performed using the HTRF kinEASE TK kit available from Cisbio. The operation steps are indicated in the instructions of the kit. This method was used to detect the inhibitory effect of the compound to be tested on the activity of ALK enzymes in vitro, including wild-type ALK (Cat.PV3867, Invitrogen), ALK L1196M (Cat. PV6168, Life technologies), and ALK F1174L (Cat. PV6160, Life technologies). The specific operation steps were as follows. […] In addition to the control wells, 4 μL of the diluted compound solution to be tested was added to the reaction wells, and 4 μL of the 2.5% DMSO solution corresponding to the ALK enzyme previously formulated was added to the control wells. (2) 2 μL of a TK-biotin substrate solution previously formulated in a substrate concentration corresponding to the ALK enzyme was added to all reaction wells. (3) 2 μL of a previously prepared enzyme solution of corresponding concentration was added to all the reaction wells except the negative wells, and 2 μL of the 1× kinase buffer corresponding to the enzyme was added to the negative wells to make up the volume. The plate was sealed with a membrane, and incubated for 10 min at room temperature after mixing uniformly, such that the compounds were bond to the enzyme fully. (4) 2 μL of an ATP solution in a concentration corresponding to the ALK enzyme was added to all the reaction wells to initiate the kinase reaction, where the enzyme reaction time by ALK was 60 minutes. (5) An ALK test solution was prepared 5 minutes before the end of the kinase reaction. Streptavidin-XL665 and TK antibody europium cryptate (1:100) solutions for assay having a concentration corresponding to the enzyme were prepared using the detection buffer in the kit. (6) After the completion of the kinase reaction, 5 μl of diluted Streptavidin-XL665 was added to all the reaction wells respectively, and mixed uniformly, and then the diluted TK antibody europium cryptate solution for assay was added immediately. (7) The plate was sealed, mixed uniformly and allowed to react at room temperature for 1 h. The fluorescence signal (excitation at 320 nm, and emission at 665 nm and 615 nm) was detected using the ENVISION instrument (Perkinelmer). The inhibition rate for each well was calculated from the values of the fully active wells and the background signal wells. The values of replicated wells were averaged, and the half-maximal inhibitory activity (IC50) of each compound to be tested was fitted with a professional drawing analysis software PRISM 5.0.
Chain of ALK enzyme (Q9UM73 19-1620 limits assumed): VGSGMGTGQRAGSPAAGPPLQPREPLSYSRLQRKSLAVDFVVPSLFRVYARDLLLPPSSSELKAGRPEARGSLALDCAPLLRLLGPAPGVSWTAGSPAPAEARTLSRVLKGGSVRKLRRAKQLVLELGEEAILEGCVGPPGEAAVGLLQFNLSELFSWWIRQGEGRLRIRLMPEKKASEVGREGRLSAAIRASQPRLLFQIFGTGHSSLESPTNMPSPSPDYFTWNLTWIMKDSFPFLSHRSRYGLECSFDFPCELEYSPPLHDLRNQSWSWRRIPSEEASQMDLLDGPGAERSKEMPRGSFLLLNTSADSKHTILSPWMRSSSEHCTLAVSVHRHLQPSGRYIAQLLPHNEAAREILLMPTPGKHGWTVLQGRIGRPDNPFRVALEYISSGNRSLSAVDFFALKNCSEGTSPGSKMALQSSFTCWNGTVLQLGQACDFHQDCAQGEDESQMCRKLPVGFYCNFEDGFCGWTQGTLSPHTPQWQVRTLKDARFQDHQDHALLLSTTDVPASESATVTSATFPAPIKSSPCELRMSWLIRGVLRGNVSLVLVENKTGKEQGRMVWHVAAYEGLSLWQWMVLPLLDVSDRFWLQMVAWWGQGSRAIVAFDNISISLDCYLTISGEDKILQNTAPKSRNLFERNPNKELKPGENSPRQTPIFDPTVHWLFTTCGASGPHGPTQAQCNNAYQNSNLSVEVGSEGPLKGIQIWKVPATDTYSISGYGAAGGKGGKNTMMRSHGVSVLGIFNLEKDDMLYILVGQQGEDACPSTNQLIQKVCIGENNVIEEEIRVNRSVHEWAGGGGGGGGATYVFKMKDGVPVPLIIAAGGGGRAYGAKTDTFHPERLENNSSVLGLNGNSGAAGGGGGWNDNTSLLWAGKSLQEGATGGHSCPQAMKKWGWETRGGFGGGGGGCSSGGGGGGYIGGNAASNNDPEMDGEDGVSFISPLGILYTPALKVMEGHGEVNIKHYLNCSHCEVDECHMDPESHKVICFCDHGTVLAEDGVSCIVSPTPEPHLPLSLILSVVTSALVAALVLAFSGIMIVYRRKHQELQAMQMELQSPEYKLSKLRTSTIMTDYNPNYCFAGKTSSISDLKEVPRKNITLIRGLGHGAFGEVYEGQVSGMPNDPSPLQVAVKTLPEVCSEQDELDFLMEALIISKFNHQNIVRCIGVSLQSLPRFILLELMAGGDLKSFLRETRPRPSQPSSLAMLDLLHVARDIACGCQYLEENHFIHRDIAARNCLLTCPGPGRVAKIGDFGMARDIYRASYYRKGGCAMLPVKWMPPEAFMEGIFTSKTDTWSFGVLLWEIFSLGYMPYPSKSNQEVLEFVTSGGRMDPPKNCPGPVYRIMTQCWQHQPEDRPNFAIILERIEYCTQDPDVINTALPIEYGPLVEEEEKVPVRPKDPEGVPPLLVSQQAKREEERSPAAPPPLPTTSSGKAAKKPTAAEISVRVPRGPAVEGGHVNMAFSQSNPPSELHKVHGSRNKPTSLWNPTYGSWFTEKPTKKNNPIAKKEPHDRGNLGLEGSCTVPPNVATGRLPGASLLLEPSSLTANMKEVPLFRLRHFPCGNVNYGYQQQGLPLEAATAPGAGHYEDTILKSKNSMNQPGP
`COc1cc(N2CCC(N3CCOCC3)CC2)ccc1Nc1nc(Nc2ccccc2S(=O)(=O)C(C)C)c2ccccc2n1` [Compound I-28, N4-(2-(isopropylsulfonyl)phenyl)-N2-(2-D3-methoxy-4-(4-morpholinopiperidin-1-yl)phenyl)quinazolin-2,4-diamine]: the IC50 lay in the range of 10 to 100 nM.
For the molecule `COc1cc(N2CCC(N3CCN(C)CC3)CC2)ccc1Nc1ncnc(Nc2ccccc2S(=O)(=O)C(C)C)n1` [Compound I-43, N2-(2-(isopropylsulfonyl)phenyl)-N4-(2-D3-methoxy-4-(4-(4-methylpiperazin-1-yl)piperidin-1-yl)phenyl)-1,3,5-triazin-2,4-diamine], the half-maximal inhibitory concentration (IC50) fell in the range of 1 to 10 nM.
For the molecule `COc1cc(C2CCNCC2)c(C#N)cc1Nc1ncc(Cl)c(Nc2ccccc2S(=O)(=O)C(C)C)n1` [Compound I-23, 5-((5-chloro-4-((2-(isopropylsulfonyl)phenyl)amino)pyrimidin-2-yl)amino)-4-D3-methoxy-2-(piperidin-4-yl)benzonitrile], the 50% inhibitory concentration (IC50) was in the range of 1 to 10 nM.
In the case of `COc1cc(N2CCC(N3CCN(C)CC3)CC2)ccc1Nc1nc(Nc2ccccc2S(=O)(=O)C(C)C)c2[nH]ccc2n1` [Compound I-25] it was 10 to 100 nM; in that of `COc1cc(C2CCNCC2)c(C)cc1Nc1ncc([N+](=O)[O-])c(Nc2ccccc2S(=O)(=O)C(C)C)n1` [Compound I-10, N4-(2-(isopropylsulfonyl)phenyl)-N2-(2-D3-methoxy-5-methyl-4-(piperidin-4-yl)phenyl)-5-nitropyrimidin-2,4-diamine], 1 to 10 nM.
On to `COc1cc(C2CCNCC2)c(C)cc1Nc1ncc(-c2ccccc2)c(Nc2ccccc2S(=O)(=O)C(C)C)n1` [Compound I-11, N4-(2-(isopropylsulfonyl)phenyl)-N2-(2-D3-methoxy-5-methyl-4-(piperidin-4-yl)phenyl)-5-phenylpyrimidin-2,4-diamine], for which the 50% inhibitory concentration (IC50) fell in the range of 10 to 100 nM.
As to `C#Cc1cnc(Nc2cc(C)c(C3CCNCC3)cc2OC)nc1Nc1ccccc1S(=O)(=O)C(C)C` [Compound I-13, 5-ethynyl-N4-(2-(isopropylsulfonyl)phenyl)-N2-(2-D3-methoxy-5-methyl-4-(piperidin-4-yl)phenyl)pyrimidin-2,4-diamine], the half-inhibitory concentration (IC50) fell in the range of 1 to 10 nM.
As for `COc1cc(C2CCNCC2)c(C)cc1Nc1ncc(C)c(Nc2ccccc2S(=O)(=O)C(C)C)n1` [Compound I-8, N4-(2-(isopropylsulfonyl)phenyl)-N2-(2-D3-methoxy-5-methyl-4-(piperidin-4-yl)phenyl)-5-methylpyrimidin-2,4-diamine], the half-inhibitory concentration (IC50) lay within 1 to 10 nM.
For the molecule `COc1cc(N2CCC(N(C)C)CC2)ccc1Nc1nc(Nc2ccccc2S(=O)(=O)C(C)C)c2sccc2n1` [Compound I-27, N2-(4-(4-(dimethylamino)piperidin-1-yl)-2-D3-methoxyphenyl)-N4-(2-(isopropylsulfonyl)phenyl)thieno[3,2-d]pyrimidin-2,4-diamine], the IC50 was 10 to 100 nM.
As for `COc1cc(N2CCNCC2)c(C)cc1Nc1ncnc(Nc2ccccc2S(=O)(=O)C(C)C)n1` [Compound I-42, N2-(2-D3-methoxy-4-(piperazin-1-yl)-5-methyl-phenyl)-N4-(2-(isopropylsulfonyl)phenyl)-1,3,5-triazin-2,4-diamine], the IC50 was in the range of 1 to 10 nM.
As for `COc1cc(C2CCNCC2)ccc1Nc1ncc(Cl)c(Nc2ccccc2S(=O)(=O)C(C)C)n1` [Compound I-15, 5-chloro-N2-(2-D3-methoxy-4-(piperidin-4-yl)phenyl)-N4-(2-(isopropylsulfonyl)phenyl)pyrimidin-2,4-diamine], the 50% inhibitory concentration (IC50) lay in the range of 1 to 10 nM.
For the molecule `CCc1cnc(Nc2cc(C)c(C3CCNCC3)cc2OC)nc1Nc1ccccc1S(=O)(=O)C(C)C` [Compound I-9, 5-ethyl-N4-(2-(isopropylsulfonyl)phenyl)-N2-(2-D3-methoxy-5-methyl-4-(piperidin-4-yl)phenyl)pyrimidin-2,4-diamine], the concentration for half-maximal inhibition (IC50) lay in the range of 1 to 10 nM.
Take `CCc1cc(Nc2ncc(Cl)c(Nc3ccccc3S(=O)(=O)C(C)C)n2)c(OC)cc1C1CCNCC1` [Compound 44, reference compound]: the 50% inhibitory concentration (IC50) fell in the range of 10 to 100 nM.
In the case of `C=Cc1cnc(Nc2cc(C)c(C3CCNCC3)cc2OC)nc1Nc1ccccc1S(=O)(=O)C(C)C` [Compound I-12, N4-(2-(isopropylsulfonyl)phenyl)-N2-(2-D3-methoxy-5-methyl-4-(piperidin-4-yl)phenyl)-5-ethenylpyrimidin-2,4-diamine], the IC50 lay within 1 to 10 nM.
Consider `COc1cc(N2CCC(N(C)C)CC2)ccc1Nc1nc(Nc2ccccc2S(=O)(=O)C(C)C)c2ccsc2n1` [Compound I-26, N2-(4-(4-(dimethylamino)piperidin-1-yl)-2-D3-methoxyphenyl)-N4-(2-(isopropylsulfonyl)phenyl)thieno[2,3-d]pyrimidin-2,4-diamine], for which the IC50 is 10 to 100 nM.
Next, `COc1cc(N2CCNCC2)ccc1Nc1ncnc(Nc2ccccc2S(=O)(=O)C(C)C)n1` [Compound I-41, N2-(2-D3-methoxy-4-(piperazin-1-yl)phenyl)-N4-(2-(isopropylsulfonyl)phenyl)-1,3,5-triazin-2,4-diamine]: 1 to 10 nM.
Consider `COc1cc(C2CCNCC2)c(C)cc1Nc1ncc(Br)c(Nc2ccccc2S(=O)(=O)C(C)C)n1` [Compound I-4, 5-bromo-N4-(2-(isopropylsulfonyl)phenyl)-N2-(2-D3-methoxy-5-methyl-4-(piperidin-4-yl)phenyl)pyrimidin-2,4-diamine], for which the IC50 was in the range of 1 to 10 nM.
In the case of `COc1cc(C2CCNCC2)c(C)cc1Nc1nc(Nc2ccccc2S(=O)(=O)C(C)C)c2[nH]ccc2n1` [Compound I-31, N4-(2-(isopropylsulfonyl)phenyl)-N2-(2-D3-methoxy-5-methyl-4-(piperidin-4-yl)phenyl)-5H-pyrrolo[3,2-d]pyrimidin-2,4-diamine], the concentration for half-maximal inhibition (IC50) was in the range of 10 to 100 nM.
Take `COc1cc(N2CCNCC2)c(C)cc1Nc1ncc(Cl)c(Nc2ccccc2S(=O)(=O)C(C)C)n1` [Compound I-17, 5-chloro-N4-(2-(isopropylsulfonyl)phenyl)-N2-(2-D3-methoxy-4-(piperazin-1-yl)-5-methyl-phenyl)pyrimidin-2,4-diamine]: the IC50 lay within 1 to 10 nM.
In the case of `COc1cc(N2CCC(N3CCC(N)CC3)CC2)ccc1Nc1ncc(Cl)c(Nc2ccccc2S(=O)(=O)C(C)C)n1` [Compound I-34, N2-(4-(4-amino-[1,4′-bipyridin]-1′-yl)-2-D3-methoxyphenyl)-5-chloro-N4-(2-(isopropylsulfonyl)phenyl)pyrimidin-2,4-diamine] it was 1 to 10 nM; in that of `COc1cc(C2CCNCC2)c(C)cc1Nc1ncc(Cl)c(Nc2ccccc2P(C)(C)=O)n1` [Compound I-38, 5-chloro-N4-(2-(dimethylphosphoryl)phenyl)-N2-(2-D3-methoxy-5-methyl-4-(piperidin-4-yl)phenyl)pyrimidin-2,4-diamine], 1 to 10 nM; in that of `COc1cc(C2CCNCC2)ccc1Nc1ncnc(Nc2ccccc2S(=O)(=O)C(C)C)n1` [Compound I-39, N2-(2-(isopropylsulfonyl)phenyl)-N4-(2-D3-methoxy-4-(4-piperidin-4-yl)phenyl)-1,3,5-triazin-2,4-diamine], 1 to 10 nM.
Consider `CCOc1cc(C2CCNCC2)ccc1Nc1ncc(Cl)c(Nc2ccccc2S(=O)(=O)C(C)C)n1` [Compound I-20, 5-chloro-N2-(2-D5-ethoxy-4-(piperidin-4-yl)phenyl)-N4-(2-(isopropylsulfonyl)phenyl)pyrimidin-2,4-diamine], for which the half-maximal inhibitory concentration (IC50) was 1 to 10 nM.
Take `COc1cc(C2CCNCC2)c(C)cc1Nc1ncc(C#N)c(Nc2ccccc2S(=O)(=O)C(C)C)n1` [Compound I-6]: the IC50 is 1 to 10 nM.
In the case of `[2H]C([2H])([2H])Oc1cc(C2CCNCC2)c(C)cc1Nc1ncc(C(F)(F)F)c(Nc2ccccc2S(=O)(=O)C(C)C)n1` [Compound I-5, N4-(2-(isopropylsulfonyl)phenyl)-N2-(2-methoxy-5-methyl-4-(piperidin-4-yl)phenyl)-5-(trifluoromethyl)pyrimidin-2,4-diamine] it was 1 to 10 nM; in that of `CCOc1cc(C2CCNCC2)c(Cl)cc1Nc1ncc(Cl)c(Nc2ccccc2S(=O)(=O)C(C)C)n1` [Compound I-19, 5-chloro-N2-(5-chloro-2-D5-ethoxy-4-(piperidin-4-yl)phenyl)-N4-(2-(isopropylsulfonyl)phenyl)pyrimidin-2,4-diamine], 1 to 10 nM; in that of `COc1cc(C2CCNCC2)c(C)cc1Nc1ncc(OC)c(Nc2ccccc2S(=O)(=O)C(C)C)n1` [Compound I-7, N4-(2-(isopropylsulfonyl)phenyl)-5-methoxy-N2-(2-D3-methoxy-5-methyl-4-(piperidin-4-yl)phenyl)pyrimidin-2,4-diamine], 1 to 10 nM.
